Reference: the NIST ThermoML archive (doi:10.1016/j.tca.2018.11.018)
Numbers after ± are expanded uncertainties.

Test: xn = mol fraction of the nth substance listed
Settings: 100 kPa, Liquid; for viscosity: Falling or rolling sphere viscometry; for mass density: Vibrating tube method

CCCC[n+]1ccccc1.[Br-] [1-butylpyridinium bromide] + O
Settings | mass density [kg/m3] | viscosity [mPa·s]
298.15 K, x1 = 0.03 | 1068.5 ± 1 | 1.544 ± 0.093
298.15 K, x1 = 0.06 | 1118.5 ± 1 | 2.378 ± 0.14
298.15 K, x1 = 0.09 | 1154.8 ± 1 | 3.424 ± 0.21
298.15 K, x1 = 0.13 | 1189.9 ± 1.1 | 5.218 ± 0.32
298.15 K, x1 = 0.17 | 1214.8 ± 1.1 | 8.606 ± 0.52
298.15 K, x1 = 0.211 | 1233.8 ± 1.2 | 12.22 ± 0.74
298.15 K, x1 = 0.25 | 1247.8 ± 1.2 | 16.44 ± 1
298.15 K, x1 = 0.291 | 1259.5 ± 1.3 | 24.37 ± 1.5
298.15 K, x1 = 0.332 | 1268.9 ± 1.5 | 30.3 ± 1.9
298.15 K, x1 = 0.377 | 1277.4 ± 1.7 | 42.55 ± 2.6
303.15 K, x1 = 0.03 | 1066.2 ± 1 | 1.36 ± 0.082
303.15 K, x1 = 0.06 | 1115.6 ± 1 | 2.067 ± 0.12
303.15 K, x1 = 0.09 | 1151.6 ± 1 | 2.951 ± 0.18
303.15 K, x1 = 0.13 | 1186.5 ± 1.1 | 4.45 ± 0.27
303.15 K, x1 = 0.17 | 1211.3 ± 1.1 | 7.401 ± 0.45
303.15 K, x1 = 0.211 | 1230.3 ± 1.2 | 10.37 ± 0.63
303.15 K, x1 = 0.25 | 1244.4 ± 1.2 | 13.83 ± 0.84
303.15 K, x1 = 0.291 | 1256.1 ± 1.3 | 18.59 ± 1.1
303.15 K, x1 = 0.332 | 1265.6 ± 1.5 | 24.78 ± 1.5
303.15 K, x1 = 0.377 | 1274 ± 1.7 | 34.24 ± 2.1
308.15 K, x1 = 0.03 | 1063.8 ± 1 | 1.212 ± 0.073
308.15 K, x1 = 0.06 | 1112.6 ± 1 | 1.82 ± 0.11
308.15 K, x1 = 0.09 | 1148.3 ± 1 | 2.575 ± 0.16
308.15 K, x1 = 0.13 | 1183 ± 1.1 | 3.851 ± 0.23
308.15 K, x1 = 0.17 | 1207.8 ± 1.1 | 6.345 ± 0.38
308.15 K, x1 = 0.211 | 1226.8 ± 1.2 | 8.845 ± 0.54
308.15 K, x1 = 0.25 | 1240.9 ± 1.2 | 11.68 ± 0.71
308.15 K, x1 = 0.291 | 1252.7 ± 1.3 | 15.55 ± 0.95
308.15 K, x1 = 0.332 | 1262.2 ± 1.5 | 20.41 ± 1.2
308.15 K, x1 = 0.377 | 1270.7 ± 1.7 | 27.78 ± 1.7
313.15 K, x1 = 0.03 | 1061.2 ± 1 | 1.089 ± 0.066
313.15 K, x1 = 0.06 | 1109.6 ± 1 | 1.617 ± 0.098
313.15 K, x1 = 0.09 | 1145 ± 1 | 2.268 ± 0.14
313.15 K, x1 = 0.13 | 1179.5 ± 1.1 | 3.356 ± 0.2
313.15 K, x1 = 0.17 | 1204.2 ± 1.1 | 5.426 ± 0.33
313.15 K, x1 = 0.211 | 1223.3 ± 1.1 | 7.548 ± 0.46
313.15 K, x1 = 0.25 | 1237.5 ± 1.2 | 10.01 ± 0.61
313.15 K, x1 = 0.291 | 1249.3 ± 1.3 | 13.05 ± 0.8
313.15 K, x1 = 0.332 | 1258.8 ± 1.5 | 16.97 ± 1
313.15 K, x1 = 0.377 | 1267.3 ± 1.7 | 22.77 ± 1.4
318.15 K, x1 = 0.03 | 1058.6 ± 1 | 0.985 ± 0.06
318.15 K, x1 = 0.06 | 1106.4 ± 1 | 1.447 ± 0.088
318.15 K, x1 = 0.09 | 1141.6 ± 1 | 2.014 ± 0.12
318.15 K, x1 = 0.13 | 1176 ± 1.1 | 2.954 ± 0.18
318.15 K, x1 = 0.17 | 1200.7 ± 1.1 | 4.671 ± 0.28
318.15 K, x1 = 0.211 | 1219.8 ± 1.1 | 6.488 ± 0.39
318.15 K, x1 = 0.25 | 1234 ± 1.2 | 8.493 ± 0.52
318.15 K, x1 = 0.291 | 1245.9 ± 1.3 | 11.08 ± 0.68
318.15 K, x1 = 0.332 | 1255.4 ± 1.5 | 14.29 ± 0.87
318.15 K, x1 = 0.377 | 1264 ± 1.7 | 18.95 ± 1.2
323.15 K, x1 = 0.03 | 1055.7 ± 1 | 0.897 ± 0.054
323.15 K, x1 = 0.06 | 1103.2 ± 1 | 1.306 ± 0.079
323.15 K, x1 = 0.09 | 1138.1 ± 1 | 1.805 ± 0.11
323.15 K, x1 = 0.13 | 1172.4 ± 1.1 | 2.617 ± 0.16
323.15 K, x1 = 0.17 | 1197.1 ± 1.1 | 4.051 ± 0.25
323.15 K, x1 = 0.211 | 1216.3 ± 1.1 | 5.616 ± 0.34
323.15 K, x1 = 0.25 | 1230.5 ± 1.2 | 7.331 ± 0.45
323.15 K, x1 = 0.291 | 1242.4 ± 1.3 | 9.521 ± 0.58
323.15 K, x1 = 0.332 | 1252 ± 1.5 | 12.17 ± 0.74
323.15 K, x1 = 0.377 | 1260.6 ± 1.7 | 15.95 ± 0.98
328.15 K, x1 = 0.03 | 1052.8 ± 1 | 0.822 ± 0.05
328.15 K, x1 = 0.06 | 1099.9 ± 1 | 1.185 ± 0.072
328.15 K, x1 = 0.09 | 1134.7 ± 1 | 1.623 ± 0.098
328.15 K, x1 = 0.13 | 1168.8 ± 1.1 | 2.359 ± 0.14
328.15 K, x1 = 0.17 | 1193.5 ± 1.1 | 3.564 ± 0.22
328.15 K, x1 = 0.211 | 1212.7 ± 1.1 | 4.914 ± 0.3
328.15 K, x1 = 0.25 | 1227 ± 1.2 | 6.394 ± 0.39
328.15 K, x1 = 0.291 | 1239 ± 1.3 | 8.281 ± 0.51
328.15 K, x1 = 0.332 | 1248.6 ± 1.5 | 10.52 ± 0.64
328.15 K, x1 = 0.377 | 1257.3 ± 1.7 | 13.65 ± 0.84
333.15 K, x1 = 0.03 | 1049.9 ± 1 | 0.758 ± 0.046
333.15 K, x1 = 0.06 | 1096.5 ± 1 | 1.081 ± 0.065
333.15 K, x1 = 0.09 | 1131.1 ± 1 | 1.474 ± 0.089
333.15 K, x1 = 0.13 | 1165.2 ± 1.1 | 2.113 ± 0.13
333.15 K, x1 = 0.17 | 1189.9 ± 1.1 | 3.178 ± 0.19
333.15 K, x1 = 0.211 | 1209.1 ± 1.1 | 4.327 ± 0.26
333.15 K, x1 = 0.25 | 1223.4 ± 1.2 | 5.626 ± 0.34
333.15 K, x1 = 0.291 | 1235.5 ± 1.3 | 7.256 ± 0.44
333.15 K, x1 = 0.332 | 1245.4 ± 1.5 | 9.187 ± 0.56
333.15 K, x1 = 0.377 | 1253.9 ± 1.7 | 11.84 ± 0.73
338.15 K, x1 = 0.03 | 1046.6 ± 1 | 0.704 ± 0.043
338.15 K, x1 = 0.06 | 1092.8 ± 1 | 1.002 ± 0.061
338.15 K, x1 = 0.09 | 1127.5 ± 1 | 1.353 ± 0.082
338.15 K, x1 = 0.13 | 1161.5 ± 1.1 | 1.912 ± 0.12
338.15 K, x1 = 0.17 | 1186.2 ± 1.1 | 2.852 ± 0.17
338.15 K, x1 = 0.211 | 1205.5 ± 1.1 | 3.835 ± 0.23
338.15 K, x1 = 0.25 | 1219.9 ± 1.2 | 4.96 ± 0.3
338.15 K, x1 = 0.291 | 1232 ± 1.3 | 6.395 ± 0.39
338.15 K, x1 = 0.332 | 1241.8 ± 1.5 | 8.064 ± 0.49
338.15 K, x1 = 0.377 | 1250.6 ± 1.6 | 10.31 ± 0.63
343.15 K, x1 = 0.03 | 1043.2 ± 1 | 0.66 ± 0.04
343.15 K, x1 = 0.06 | 1089.5 ± 1 | 0.92 ± 0.056
343.15 K, x1 = 0.09 | 1123.9 ± 1 | 1.235 ± 0.075
343.15 K, x1 = 0.13 | 1157.8 ± 1.1 | 1.741 ± 0.11
343.15 K, x1 = 0.17 | 1182.6 ± 1.1 | 2.367 ± 0.14
343.15 K, x1 = 0.211 | 1201.9 ± 1.1 | 3.463 ± 0.21
343.15 K, x1 = 0.25 | 1216.3 ± 1.2 | 4.428 ± 0.27
343.15 K, x1 = 0.291 | 1228.5 ± 1.3 | 5.687 ± 0.35
343.15 K, x1 = 0.332 | 1238.3 ± 1.4 | 7.153 ± 0.44
343.15 K, x1 = 0.377 | 1247.2 ± 1.6 | 9.118 ± 0.56
348.15 K, x1 = 0.03 | 1039.8 ± 1 | 0.618 ± 0.037
348.15 K, x1 = 0.06 | 1086 ± 1 | 0.862 ± 0.052
348.15 K, x1 = 0.09 | 1120.1 ± 1 | 1.139 ± 0.069
348.15 K, x1 = 0.13 | 1154.1 ± 1.1 | 1.591 ± 0.096
348.15 K, x1 = 0.17 | 1178.9 ± 1.1 | 2.149 ± 0.13
348.15 K, x1 = 0.211 | 1198.3 ± 1.1 | 3.138 ± 0.19
348.15 K, x1 = 0.25 | 1212.8 ± 1.2 | 3.971 ± 0.24
348.15 K, x1 = 0.291 | 1225 ± 1.3 | 5.06 ± 0.31
348.15 K, x1 = 0.332 | 1234.9 ± 1.4 | 6.384 ± 0.39
348.15 K, x1 = 0.377 | 1243.8 ± 1.6 | 8.095 ± 0.5
